From PubChem BioAssay AID210 (DTP/NCI, 2004) come the findings set out here.

This assay has as its system CD2F1 mice, ip Colon 26 adenocarcinoma, median survival T/C. Description: NCI In Vivo Anticancer Drug Screen. Data for tumor model Colon 26 Adenocarcinoma (intraperitoneal) in CD2F1 (CDF1) mice. The note with it: endpoint: median survival time, higher = longer survival. The procedure: The antitumor activity of compounds was measured in mice bearing transplantable tumors. Survival or tumor size were measured and the results are expressed as the measurement made in the treated group (T) divided by the measurement made in the vehicle treated control group (C). The tumor model used in this assay is Colon 26 Adenocarcinoma (intraperitoneal) in CD2F1 (CDF1) mice

Inconclusive results and toxic doses are left out.

In the case of `COc1cccc2c1C(=O)c1c(O)c3c(c(O)c1C2=O)C[C@@](O)(C(C)=O)C[C@@H]3OC1CC(N)C(O)C(C)O1` (some centres undefined), the T/C runs as follows: (dose: 1.8 mg/kg/injection, schedule: Q04DX003 (ip), vehicle: water) 114 % of control; (dose: 2.0 mg/kg/injection, schedule: Q04DX003 (ip), vehicle: saline) 158 % of control; (dose: 2.0 mg/kg/injection, schedule: Q07DX002 (iv), vehicle: saline) 113 % of control; (dose: 2.16 mg/kg/injection, schedule: Q04DX003 (ip), vehicle: water) 119 % of control; (dose: 3.4 mg/kg/injection, schedule: Q07DX002 (iv), vehicle: saline) 106 % of control; (dose: 3.6 mg/kg/injection, schedule: Q04DX003 (ip), vehicle: water) 103 % of control. Moreover, the T/C (dose: 4.0 mg/kg/injection, schedule: Q04DX003 (ip), vehicle: saline) is 115 % of control; the T/C (dose: 5.7 mg/kg/injection, schedule: Q07DX002 (iv), vehicle: saline) is 104 % of control; the T/C (dose: 9.5 mg/kg/injection, schedule: Q07DX002 (iv), vehicle: saline) is 115 % of control.

As to `COC(C(=O)C(O)C(C)O)C1CC2C=C3C=C(OC4CC(OC5CC(O)C(OC)C(C)O5)C(OC(C)=O)C(C)O4)C(C)C(=O)C3=C(O)C2=C(O)C1OC1CC(OC2CC(OC3CC(C)(O)C(O)C(C)O3)C(O)C(C)O2)C(O)C(C)O1` (centres undefined), the T/C (dose: 0.5 mg/kg/injection, schedule: Q04DX003 (ip), vehicle: saline with Tween-80) is 100 % of control; the T/C (dose: 1.0 mg/kg/injection, schedule: Q04DX003 (ip), vehicle: saline with Tween-80) is 99 % of control; the T/C (dose: 2.0 mg/kg/injection, schedule: Q04DX003 (ip), vehicle: saline with Tween-80) is 99 % of control; the T/C (dose: 4.0 mg/kg/injection, schedule: Q04DX003 (ip), vehicle: saline with Tween-80) was 96 % of control; the T/C (dose: 8.0 mg/kg/injection, schedule: Q04DX003 (ip), vehicle: saline with Tween-80) is 102 % of control.
